{"source": "patent US20040018560A1", "about": "“Crystallized LXR polypeptide in complex with a ligand and screening methods employing same” (priority 2002, published 2004)", "molecules": {"B1": {"name": "human LXRβ LBD (ligand binding domain) containing amino acids 214-462 (receptor)", "chain": "GSEGEGVQLTAAQELMIQQLVAAQLQCNKRSFSDQPKVTPWPLGADPQSRDARQQRFAHFTELAIISVQEIVDFAKQVPGFLQLGREDQIALLKASTIEIMLLETARRYNHETECITFLKDFTYSKDDFHRAGLQVEFINPIFEFSRAMRRLGLDDAEYALLIAINIFSADRPNVQEPGRVEALQQPYVEALLSYTRIKRPQDQLRFPRMLMKLVSLRTLSSVHSEQVFALRLQDKKLPPLLSEIWDVHE", "notes": "It is entered here as the monomer, so that self-association is the pair m1-m1; also called LXR LBD"}}, "key": {"[1]": {"molecular_target": "T1, human LXRα LBD (Homo sapiens, UniProt Q13133, H421A)", "T1 construct": "LXRα (amino acids 164-447); expressed in transfected cells; host or cells: CV-1 cells", "T1 sequence (Q13133 164-447 H421A)": "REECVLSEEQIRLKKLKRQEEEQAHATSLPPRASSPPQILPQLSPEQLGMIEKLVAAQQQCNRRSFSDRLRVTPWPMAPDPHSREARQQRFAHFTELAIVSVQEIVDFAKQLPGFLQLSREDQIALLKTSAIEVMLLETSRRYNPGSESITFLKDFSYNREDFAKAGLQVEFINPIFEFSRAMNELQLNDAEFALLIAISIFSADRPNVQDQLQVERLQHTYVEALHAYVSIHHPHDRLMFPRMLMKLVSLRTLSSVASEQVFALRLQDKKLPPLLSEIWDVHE", "experiment": "Gal4-LXRα LBD (wild type and mutant) transactivation, SPAP reporter, transient transfection in CV-1 cells", "format": "cell-based", "details": "compound 10 μM, 18 hours", "description": "FIG. 7A is a bar graph depicting the effect of mutating LXR LBD pocket residues on transcriptional activity, which was determined by measuring the amount of SPAP synthesized in CV-1 cells by a transiently transfected Gal4 fusion of LXRα LBD.\n(§1) To explore these differences, site directed mutants were made targeting specific pocket residues that interacted more directly with one compound than the other. […] However, the gauche conformation of I317 extended into a pocket near the beta turn. […] By contrast, O3 of EPC extended into a hydrophilic pocket (see FIG. 6B) which includes residues E281 (E267α), E315 (E301α), and R319 (R305α). Mutations in this region permit identification of the necessary polar interactions for EPC binding. The transactivation capability of gal4-fusions of wild-type and mutant LXRα and LXRβ LBDs were measured by their ability to transcribe secreted placental alkaline phosphatase (SPAP) on a UAS-tk promoter in transient transfection experiments in CV-1 cells. See Laboratory Example 4. […]\n(§2) Wild type and mutant LXR transactivation activity was measured in CV-1 cells. […]\n(§3) Alkaline phosphatase activity was assayed by adding 200 μl substrate (7 mM p-nitrophenyl phosphate in 1 M diethanolamine/0.28 M sodium chloride/0.5 mM magnesium chloride, pH 9.85) to each well of the plates, incubating at room temperature, and reading absorbance at 405 nm. […]"}, "[2]": {"molecular_target": "T2, human LXRβ LBD (Homo sapiens, UniProt P55055, H434A)", "T2 construct": "LXRβ (amino acids 155-462); expressed in transfected cells; host or cells: CV-1 cells", "T2 sequence (P55055 155-460 H434A)": "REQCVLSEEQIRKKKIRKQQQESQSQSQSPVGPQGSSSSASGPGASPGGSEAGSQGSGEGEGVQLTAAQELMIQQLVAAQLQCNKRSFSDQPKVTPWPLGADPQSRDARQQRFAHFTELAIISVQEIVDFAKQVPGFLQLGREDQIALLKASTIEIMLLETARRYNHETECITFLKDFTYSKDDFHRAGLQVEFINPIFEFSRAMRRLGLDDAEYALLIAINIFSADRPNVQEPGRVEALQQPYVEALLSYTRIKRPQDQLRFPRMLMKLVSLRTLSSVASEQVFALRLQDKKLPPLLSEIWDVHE", "experiment": "Gal4-LXRβ LBD (wild type and mutant) transactivation, SPAP reporter, transient transfection in CV-1 cells", "format": "cell-based", "details": "LXRβ H435A mutant LBD, compound 10 μM, 18 hours", "description": "(§4) FIG. 7B is a bar graph depicting the effect of mutating LXR LBD pocket residues on transcriptional activity, which was determined by measuring the amount of SPAP synthesized in CV-1 cells by a transiently transfected Gal4 fusion of LXRβ LBD.\nas §1, §2, §3"}, "[3]": {"molecular_target": "T3, human LXRβ LBD (Homo sapiens, UniProt P55055, Y334W)", "T3 construct": "LXRβ (amino acids 155-462); expressed in transfected cells; host or cells: CV-1 cells", "T3 sequence (P55055 155-460 Y334W)": "T2 sequence (P55055 155-460 H434A) with Y180W, A280H", "experiment": "Gal4-LXRβ LBD (wild type and mutant) transactivation, SPAP reporter, transient transfection in CV-1 cells", "format": "cell-based", "details": "LXRβ Y335W mutant LBD, compound 10 μM, 18 hours", "description": "as §4, §1, §2, §3"}, "[4]": {"tested_on": "LXR", "experiment": "LXR activation (general statements, literature)"}, "[5]": {"tested_on": "LXR", "experiment": "Ligand binding to LXR"}, "[6]": {"tested_on": "LXR", "details": "both LXR subtypes; compared with the natural ligands; cited from earlier work"}, "[7]": {"tested_on": "LXR", "experiment": "Co-activator recruitment by LXR", "format": "biochemical"}, "[8]": {"molecular_target": "the molecule itself", "experiment": "X-ray crystal structures, homodimer in the asymmetric unit"}, "[9]": {"molecular_target": "B1", "experiment": "X-ray co-crystal structure, LXRβ LBD with EPC and SRC1 peptide", "description": "Crystallization trials were carried out using the hanging drop method by mixing 2 μl of protein solution with 2 μl of well buffer. Both the LXRβ/ligand complexes crystallized out of 10-12% PEG 3350-8000 with 0.2M salt at 40° C. Usable LXRβ/T0901317 crystals were obtained from a number of salts including NaF, KF, NaCl, KCl, Na formate, Na acetate, and K acetate. The best LXRβ/EPC (24(S), 25-epoxycholesterol) crystals were obtained with ammonium sulfate and lithium sulfate salts. All crystals took 4-6 weeks to grow. Crystals were frozen in LN₂ after transferring stepwise to a cryo buffer containing the well buffer with 30% PEG 400."}}, "note": "Residue numbers refer to the chain shown, from its start.", "data": [{"molecule": "O=S(=O)(c1ccccc1)N(CC(F)(F)F)c1ccc(C(O)(C(F)(F)F)C(F)(F)F)cc1", "note": "[T317, N-(2,2,2-trifluoroethyl)-N-[4-(2,2,2-trifluoro-1-hydroxy-1-trifluoromethyl-ethyl)-phenyl]-benzenesulfonamide]", "values": [{"measurement": "transcriptional activity (SPAP) with H421A mutant", "setting": "[1]", "result": "completely knocked out the activity"}, {"measurement": "transcriptional activity (SPAP) with H435A mutant", "setting": "[2]", "result": "completely knocked out the activity"}, {"measurement": "transcriptional activity (SPAP) with Y335W mutant", "setting": "[3]", "result": "some modulation"}, {"measurement": "efficacy of LXR activation", "setting": "[4]", "result": "efficacious"}, {"measurement": "binding to LXR", "setting": "[5]", "result": "bound tightly"}, {"measurement": "potency in activating both LXRs", "setting": "[6]", "result": "as potent"}]}, {"molecule": "CC(C)CCC[C@@H](C)[C@H]1CC[C@H]2[C@@H]3CC=C4C[C@@H](O)CC[C@]4(C)[C@H]3CC[C@]12C", "note": "[cholesterol]", "values": [{"measurement": "binding to LXR", "setting": "[5]", "result": "do bind to LXR"}, {"measurement": "recruitment of co-activator", "setting": "[7]", "result": "do not recruit co-activator"}]}, {"molecule": "B1", "values": [{"measurement": "binding result", "setting": "[8]", "result": "binds"}]}, {"molecule": "CPSSHSSLTERHKILHRLLQQGSPS (also called SRC1(2); SRC peptide)", "note": "[SRC1 peptide (second LXXLL motif of the nuclear receptor co-activator SRC-1)]", "values": [{"measurement": "binding result", "setting": "[9]", "result": "binds"}]}]}
